Data on three molecules can be found in patent publication US5512550A, “Method for inhibiting angiogenesis with modified platelet factor-4 and cleaved platelet factor-4” (Eli Lilly and Company, priority 1995, dated 1996).

In experiment [1] the test system is primary retinal capillary endothelial cells or bovine heart endothelial cells. Kind of experiment: Endothelial cell proliferation inhibition assay. As to conditions: for IC50, inhibition of endothelial cell proliferation: endothelial cells with 20 ng/ml fibroblast growth factor, grown four days, cell count, average of 4 wells (FIG. 1); for IC50: same experiment, IC50 restated in nM; for potency of endothelial cell proliferation inhibition compared with PF-4: under identical conditions as PF-4. The class given is cell-based. As for the experimental part: Primary retinal capillary endothelial cell cultures were prepared in substantial accordance with the procedure described in Buzney et al., Retinal Vascular Endothelial Cells and Pericytes: Differential Growth Characteristics in vitro, Invest. Opthalmol. Visual Sci. 24: 470-483 (1983) and separated from contaminating cells as described in Voyta et al., Identification and Isolation of Endothelial Cells Based on their Increased Uptake of Acetylated-low density Lipoprotein, J. Cell Biol, 99: 2034-2040 (1981).
Alternatively, bovine heart endothelial cells were obtained (American Type Culture Collection; Rockville Md. 20852) for use in the assay. Irrespective of source, the endothelial cells were seeded into 24 well tissue culture plates at a cell density of 10,000 cells/well in Dulbecco's modified Eagle Medium (GIBCO; Grand Island, N.Y.) supplemented with 5% bovine serum albumin, 1% penicillin-streptomycin, 1% L-glutamine, and 20 ng/ml fibroblast growth factor. Immediately after seeding the cells, various amounts of PF-4 (Sigma Chemical Co.; St. Louis, Mo. 63178), MPF-4 , or CPF-4 (isolated as describe in the above examples) were added to individual growth wells. MPF-4 and CPF-4 were tested at final concentrations ranging from 0.001 to 1 μg/ml. For comparison, native PF-4 was tested over a range of 0.001 to 3 μg/ml, and supplemented medium alone served as the negative control. The endothelial cell cultures were allowed to grow for four days at 37° C., 5% CO2 in a humidified tissue culture incubator. The cultures were then harvested individually by trypsinization and counted using a Zm-Coulter Counter (Coulter Electronics. Inc.; Opa Locka Fla. 33054).
The results were plotted in FIG. 1, and each point on the graph represented the average of 4 data points; ie one growth well per data point.

The nature of experiment [2]: Heparin binding (heparin affinity chromatography). The source says:
The eluted proteins are then contacted with a heparin affinity resin. The ordinarily skilled artisan will readily realize that this step is best achieved in a column chromatography mode. Heparin affinity columns are commercially available from some of the same vendors mentioned above. In this step, the molecules of interest, both MPF-4 or CPF-4, bind to the heparin column and are eluted using an increasing linear salt gradient. The preferred salt is NaCl, and the portion of the gradient that is preferably collected is the 0.1-2.0M portion. The more highly preferred portion of the gradient to collect is the 0.7-2.0M portion.
The C4-pool was further fractionated by heparin affinity chromatography on a Econo-pac™ 5 ml heparin-sepharose cartridge (Biorad, Richmond, Calif. 94804). The bound proteins were eluted by a linear gradient of 0 to 2.0M NaCl in phosphate buffer saline (PBS) at a flow rate of 2.0 ml/min. The proteins that eluted from the column were pooled into three fractions: (1) non-heparin binding (flow through), (2) low-affinity heparin binding (0 to 0.7M NACl), and (3) high-affinity heparin binding (0.7M to 2.0M NACl) fractions.

Positions of bridges follow the written chain, without caps; N, C: chain ends. Chains are numbered I, II in the order given. No end group written: not given here.

Consider “MPF-4: N-terminally processed form of human platelet factor-4, 54 C-terminal residues beginning with Ser-17, SEQ ID NO: 1 (SQVRPRHITSLEVIKAGPHCPTAQLIATLKNGRKICLDLQAPLYKKIIKKLLES)”, for which, in experiment [1], the “IC50, inhibition of endothelial cell proliferation” value (“IC50, inhibition” for short) was 0.03 to 0.05 µg/mL; the IC50 is around 7 nM; the “potency of endothelial cell proliferation inhibition compared with PF-4” value was “more potent inhibitors of endothelial cell proliferation”. For the same molecule, the heparin binding result in experiment [2] is given as “bind heparin”.

Turning to “PF-4: Native platelet factor-4 (Sigma Chemical Co.), tested for comparison [reference compound]”, in experiment [1], the “IC50, inhibition” value lay within 0.8 to 1 µg/mL and the IC50 is around 130 nM.

B1: CPF-4: Proteolytically cleaved, non-reduced PF-4: 16-residue chain (SEQ ID NO: 2) disulfide bonded to 54-residue chain (SEQ ID NO: 1) (protein)
chain 1: EAEEDGDLQCLCVKTT
chain 2: SQVRPRHITSLEVIKAGPHCPTAQLIATLKNGRKICLDLQAPLYKKIIKKLLES
modifications: disulfide I:10-II:20, I:12-II:36; not fully specified
Consider B1, for which, in experiment [1], the “IC50, inhibition” value is “approximately 150 ng/ml”; the concentration for half-maximal inhibition (IC50) is around 20 nM; the “potency of endothelial cell proliferation inhibition compared with PF-4” value is recorded as “more potent inhibitors of endothelial cell proliferation”. Further, the heparin binding entry in experiment [2] is given as “bind heparin”.
